Results taken from patent US10441576B2, “Substituted 1,2-dihydro-3H pyrrolo[1,2-c]imidazol-3 one antibacterials” (priority 2015, dated 2019).
In brackets after ≈: the same amount, converted by molar mass.

How the values were obtained:
Assay type in all cases: cell-based
[1] = test system: wild-type E. coli A-1261; assay: Bacterial growth minimal inhibitory concentration (microdilution, cation-adjusted Mueller-Hinton Broth); settings: Escherichia coli, quinolone-sensitive strain
Procedure: (§1) Minimal Inhibitory Concentrations (MICs; mg/L) were determined in cation-adjusted Mueller-Hinton Broth by a microdilution method following the description given in “Methods for Dilution Antimicrobial Susceptibility Tests for Bacteria that Grow Aerobically”, Approved standard, 7th ed., Clinical and Laboratory Standards Institute (CLSI) Document M7-A7, Wayne, Pa., USA (2006).
(§2) All Reference Example compounds were tested against several Gram-negative bacteria. […] The corresponding antibacterial test results are given in Table 1 hereafter (MICs in mg/L).

[2] = test system: K. pneumoniae A-651; assay: as above; settings: Klebsiella pneumoniae, A651; multiply resistant strain (in particular quinolone-resistant)
Procedure: as §1, §2

[3] = test system: P. aeruginosa ATCC27853; assay: as above; settings: Pseudomonas aeruginosa, quinolone-sensitive strain
Procedure: as §1, §2

[4] = test system: E. coli ATCC25922; assay: as above; settings: Escherichia coli, quinolone-sensitive strain
Procedure: as §1, §2

[5] = test system: wild-type E. coli A-1261; assay: MIC against E. coli A-1261 in the absence or presence of alkaline phosphatase or esterase
Procedure: as §1
All Example compounds were tested against wild-type E. coli A-1261 in the absence of alkaline phosphatase or esterase, in the presence of an alkaline phosphatase and in the presence of an esterase. The corresponding antibacterial test results are given in Table 2 hereafter (MICs in mg/L).

[6] = Escherichia coli, read-out: MIC for E. coli A-1261 In the absence of alkaline phosphatase or esterase
[7] = Escherichia coli, read-out: MIC for E. coli A-1261 In the presence of an alkaline phosphatase (2 i.U./mL)
[8] = Escherichia coli, read-out: MIC for E. coli A-1261 In the presence of an esterase (10 i.U./mL)
[9] = Escherichia coli; alkaline phosphatase 2 i.U./mL; read-out: MIC for E. coli A-1261 In the presence of an alkaline phosphatase (2 i.U./mL)
[10] = Escherichia coli; esterase 10 i.U./mL; read-out: MIC for E. coli A-1261 In the presence of an esterase (10 i.U./mL)
[11] = Escherichia coli; read-out: MIC for E. coli A-1261 In the absence of alkaline phosphatase or esterase

C[C@@](CCN1Cc2cc(C#CC#CC3(CO)CC3)cn2C1=O)(C(=O)NO)S(C)(=O)=O [RE1, (R)—N-hydroxy-4-(6-((1-(hydroxymethyl)cyclopropyl)buta-1,3-diyn-1-yl)-3-oxo-1H-pyrrolo[1,2-c]imidazol-2(3H)-yl)-2-methyl-2-(methylsulfonyl)butanamide]
MIC [1]: 0.25 µg/mL (≈ 0.577 µM)
MIC [2]: 1 µg/mL (≈ 2.31 µM)
MIC [3]: 1 µg/mL (≈ 2.31 µM)
MIC [4]: 0.5 µg/mL (≈ 1.15 µM)

C[C@@](CCN1Cc2cc(C#CC#CC3(COC(=O)CCc4ccccc4OP(=O)(O)O)CC3)cn2C1=O)(C(=O)NO)S(C)(=O)=O [Example 2, (R)-(1-((2-(4-(hydroxyamino)-3-methyl-3-(methylsulfonyl)-4-oxobutyl)-3-oxo-2,3-dihydro-1H-pyrrolo[1,2-c]imidazol-6-yl)buta-1,3-diyn-1-yl)cyclopropyl)methyl 3-(2-(phosphonooxy)phenyl)propanoate]
MIC [5, 6]: 8 µg/mL
MIC [5, 7]: 1 µg/mL
MIC [5, 8]: 1 µg/mL

C[C@@](CCN1Cc2cc(C#CC#C[C@H]3C[C@@H]3COP(=O)(O)O)cn2C1=O)(C(=O)NO)S(C)(=O)=O [Example 4, ((1S,2S)-2-((2-((R)-4-(hydroxyamino)-3-methyl-3-(methylsulfonyl)-4-oxobutyl)-3-oxo-2,3-dihydro-1H-pyrrolo[1,2-c]imidazol-6-yl)buta-1,3-diyn-1-yl)cyclopropyl)methyl dihydrogen phosphate]
MIC [5, 9]: 0.25 µg/mL
MIC [5, 10]: > 8 µg/mL
MIC [5, 11]: > 8 µg/mL

(R)-(1-((2-(4-(hydroxyamino)-3-methyl-3-(methylsulfonyl)-4-oxobutyl)-3-oxo-2,3-dihydro-1H-pyrrolo[1,2-c]imidazol-6-yl)buta-1,3-diyn-1-yl)cyclopropyl)methyl hydrogen sulfate [Example 8]
MIC for E. coli A-1261 In the absence of alkaline phosphatase or esterase ([5]; absence of alkaline phosphatase or esterase): 2 µg/mL
MIC for E. coli A-1261 In the presence of an alkaline phosphatase (2 i.U./mL) ([5]; alkaline phosphatase 2 i.U./mL): 2 µg/mL
MIC for E. coli A-1261 In the presence of an esterase (10 i.U./mL) ([5]; esterase 10 i.U./mL): 2 µg/mL

C[C@@](CCN1Cc2cc(C#CC#CC3(COC(=O)CN4CCOCC4)CC3)cn2C1=O)(C(=O)NO)S(C)(=O)=O [Example 1, (R)-(1-((2-(4-(hydroxyamino)-3-methyl-3-(methylsulfonyl)-4-oxobutyl)-3-oxo-2,3-dihydro-1H-pyrrolo[1,2-c]imidazol-6-yl)buta-1,3-diyn-1-yl)cyclopropyl)methyl 2-morpholinoacetate]
MIC [5, 9]: 1 µg/mL
MIC [5, 10]: 0.25 µg/mL
MIC [5, 11]: 2 µg/mL

C[C@@](CCN1Cc2cc(C#CC#CC3(CO)CC3)cn2C1=O)(C(=O)NOP(=O)(O)O)S(C)(=O)=O.N [Example 7, mono-ammonium (R)-((4-(6-((1-(hydroxymethyl)cyclopropyl)buta-1,3-diyn-1-yl)-3-oxo-1H-pyrrolo[1,2-c]imidazol-2(3H)-yl)-2-methyl-2-(methylsulfonyl)butanamido)oxy)phosphonate]
MIC [5, 9]: 1 µg/mL
MIC [5, 10]: 4 µg/mL
MIC [5, 11]: 4 µg/mL

C[C@@](CCN1Cc2cc(C#CC#C[C@H]3C[C@@H]3COC(=O)CCc3ccccc3OP(=O)(O)O)cn2C1=O)(C(=O)NO)S(C)(=O)=O [Example 5, ((1S,2S)-2-((2-((R)-4-(hydroxyamino)-3-methyl-3-(methylsulfonyl)-4-oxobutyl)-3-oxo-2,3-dihydro-1H-pyrrolo[1,2-c]imidazol-6-yl)buta-1,3-diyn-1-yl)cyclopropyl)methyl 3-(2-(phosphonooxy)phenyl)propanoate]
MIC [5, 6]: 4 µg/mL
MIC [5, 7]: 0.25 µg/mL
MIC [5, 8]: 0.25 µg/mL

C[C@@](CCN1Cc2cc(C#CC#C[C@H]3C[C@]3(F)CO)cn2C1=O)(C(=O)NO)S(C)(=O)=O [RE3, (R)-4-(6-(((1R,2R)-2-fluoro-2-(hydroxymethyl)cyclopropyl)buta-1,3-diyn-1-yl)-3-oxo-1H-pyrrolo[1,2-c]imidazol-2(3H)-yl)-N-hydroxy-2-methyl-2-(methylsulfonyl)butanamide]
MIC [1]: 0.25 µg/mL (≈ 0.554 µM)
MIC [2]: 0.5 µg/mL (≈ 1.11 µM)
MIC [3]: 0.5 µg/mL (≈ 1.11 µM)
MIC [4]: 0.25 µg/mL (≈ 0.554 µM)

C[C@@](CCN1Cc2cc(C#CC#C[C@H]3C[C@]3(F)COP(=O)(O)O)cn2C1=O)(C(=O)NO)S(C)(=O)=O [Example 6, ((1R,2R)-1-fluoro-2-((2-((R)-4-(hydroxyamino)-3-methyl-3-(methylsulfonyl)-4-oxobutyl)-3-oxo-2,3-dihydro-1H-pyrrolo[1,2-c]imidazol-6-yl)buta-1,3-diyn-1-yl)cyclopropyl)methyl dihydrogen phosphate]
MIC [5, 9]: 0.5 µg/mL
MIC [5, 10]: > 8 µg/mL
MIC [5, 11]: > 8 µg/mL

C[C@@](CCN1Cc2cc(C#CC#C[C@H]3C[C@@H]3CO)cn2C1=O)(C(=O)NO)S(C)(=O)=O [RE2, (R)—N-hydroxy-4-(6-(((1S,2S)-2-(hydroxymethyl)cyclopropyl)buta-1,3-diyn-1-yl)-3-oxo-1H-pyrrolo[1,2-c]imidazol-2(3H)-yl)-2-methyl-2-(methylsulfonyl)butanamide]
MIC [1]: 0.125 µg/mL (≈ 0.288 µM)
MIC [2]: 0.25 µg/mL (≈ 0.577 µM)
MIC [3]: 0.25 µg/mL (≈ 0.577 µM)
MIC [4]: 0.25 µg/mL (≈ 0.577 µM)

C[C@@](CCN1Cc2cc(C#CC#CC3(CO)CC3)cn2C1=O)(C(=O)NOC(=O)CCc1ccccc1OP(=O)(O)O)S(C)(=O)=O [Example 3, (R)-2-(3-((4-(6-((1-(hydroxymethyl)cyclopropyl)buta-1,3-diyn-1-yl)-3-oxo-1H-pyrrolo[1,2-c]imidazol-2(3H)-yl)-2-methyl-2-(methylsulfonyl)butanamido)oxy)-3-oxopropyl)phenyl dihydrogen phosphate]
MIC [5, 6]: 8 µg/mL
MIC [5, 7]: 0.5 µg/mL
MIC [5, 8]: 8 µg/mL
